Data as given in patent US9763572B2, “Quantitative pupillometry as a bedside predictor of postoperative respiratory depression” (Children's Hospital Medical Center, priority 2015, dated 2017).

How the values were obtained:
[1] = tested on: pupil; settings: used as prophylactic antiemetic; cited from earlier work
[2] = Blood morphine, M3G and M6G concentrations in the recovery room (LC-MS/MS) in children undergoing tonsillectomy; settings: mean±SD
[3] = tested on: pupil; assay: Serial quantitative pupillometry after intraoperative morphine in the pediatric study; type: in vivo, children
[4] = tested on: children undergoing tonsillectomy; assay: Postoperative respiratory depression and its association with ABCB1 genetic variants in children given morphine; settings: per added copy of minor allele (G) of ABCB1 rs9282564; 263 children; 95% CI: 2.1-10.8, p=0.0002
[5] = children who did not have respiratory depression with prolonged PACU stay
[6] = children who had respiratory depression and prolonged PACU stay due to respiratory depression

Compound | interference with quantitative pupillometry responses [1] | levels in the recovery room [2, 5] | levels in the recovery room [2, 6] | pupillary maximum constriction velocity (MCV) vs blood morphine concentration ([3]; FIG. 3, perioperative time points) | pupillary measures (maximum and minimum pupillary sizes, constriction percentage, maximum constriction velocity) ([3]; after intraoperative morphine bolus, under general anesthesia, FIGS. 2A-2D) | PACU pupillary measures compared to the baseline values ([3]; recovery room (PACU) vs preoperative baseline) | increase in odds of a prolonged hospital stay due to postoperative respiratory depression [4]
Cc1nccn1CC1CCc2c(c3ccccc3n2C)C1=O (centres unmarked) [ondansetron] | does not interfere with quantitative pupillometry responses |  |  |  |  |  | 
CN1CC[C@]23c4c5ccc(O)c4O[C@H]2[C@@H](O[C@@H]2O[C@H](C(=O)O)[C@@H](O)[C@H](O)[C@H]2O)C=C[C@H]3[C@H]1C5 [M6G, Morphine-6 Glucuronide] |  | 0.0117 ± 0.0071 ng/mL | 0.0091 ± 0.0039 ng/mL |  |  |  | 
CN1CC[C@]23c4c5ccc(O[C@@H]6O[C@H](C(=O)O)[C@@H](O)[C@H](O)[C@H]6O)c4O[C@H]2[C@@H](O)C=C[C@H]3[C@H]1C5 [M3G, Morphine-3 Glucuronide] |  | 0.0607 ± 0.0451 ng/mL | 0.0431 ± 0.037 ng/mL |  |  |  | 
CN1CC[C@]23c4c5ccc(O)c4O[C@H]2[C@@H](O)C=C[C@H]3[C@H]1C5 [morphine] |  | 8.4 ± 7.9 ng/mL | 2.25 ± 2.3 ng/mL | decreased as blood morphine concentration increased | incremental reductions in all these pupillary measures | residual depressive effects | 4.7 fold
